Test systems include 786-0; LOX IMVI; SK-MEL-28; RPMI-8226; UACC-62; OVCAR-3; ACHN; NCI-H23; DU-145; PC-3; SF-295; HT-29; NCI-H460; IGROV-1; HOP-62; SW-620; HCT-116; BT-549; MCF7; UO-31.
What all share (test): NCI tumour cell line growth inhibition, 48 h

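Briefly, cells in 96-well plates were exposed to five compound concentrations for 48 h, and endpoints were estimated by linear interpolation. GI50 = concentration required for 50% inhibition of growth.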 Calls of active or inactive are those of the source. Cut-off read from the data, not from the text of the source: active = GI50 up to about 1.1 µM and inactive = higher.

As to `N#Cc1c(C#N)c(SSc2c(C#N)c(C#N)c(N)n2-c2ccccc2)n(-c2ccccc2)c1N`, the GI50 was 9.44 µM (inactive) in the test with 786-0; 86.7 µM (inactive) in the test with LOX IMVI; 20.3 µM (inactive) with SK-MEL-28; 2.78 µM (inactive) in the test on RPMI-8226; 16.9 µM (inactive) with UACC-62; 16.7 µM (inactive) with OVCAR-3. Moreover, the GI50 in the test with ACHN was 5.08 µM (inactive); with NCI-H23 it was 23.6 µM (inactive); in the test on DU-145 it was 18.6 µM (inactive); in the test with PC-3, 20.9 µM (inactive); in the test with SF-295 it was 24.9 µM (inactive); with HT-29, 40.5 µM (inactive). In addition, the GI50 in the test with NCI-H460 is 30.6 µM (inactive); with IGROV-1, 28.4 µM (inactive); in the test with HOP-62, 28.4 µM (inactive); with SW-620, 1.77 µM (inactive); with HCT-116 it was 3.33 µM (inactive); in the test on BT-549, 5.57 µM (inactive). Moreover, the figures for the GI50 with MCF7 and in the test with UO-31 were 2.39 µM (inactive) and 1.91 µM (inactive), respectively.

For `CC[N+](CC)(CCNCC(N)=O)CC(N)=O`, the GI50 with 786-0, in the test on LOX IMVI, in the test on SK-MEL-28, in the test on RPMI-8226, in the test with UACC-62 and with OVCAR-3 was > 10 µM (inactive) each time. Besides, the GI50 with ACHN, in the test on NCI-H23, with DU-145, with PC-3, in the test with SF-295 and in the test on HT-29 was > 10 µM (inactive) throughout. Further, the GI50 with NCI-H460, in the test on IGROV-1, with HOP-62, in the test with SW-620, in the test on HCT-116 and with BT-549 was > 10 µM (inactive) each time. Besides, the GI50 with MCF7 and with UO-31 was > 10 µM (inactive) each time.

Regarding `CCCCCCCCCCCCCC(=O)N(CCCCCCCCC)CC(O)C(O)C(OC1OC(CO)C(O)C(O)C1O)C(O)CO` (stereo not given), the GI50 in the test with 786-0 is 17.1 µM (inactive); with LOX IMVI, 19.5 µM (inactive); in the test with SK-MEL-28 it was 18.1 µM (inactive); in the test with RPMI-8226, 29.9 µM (inactive); with UACC-62 it was 20.7 µM (inactive); with OVCAR-3 it was 26.6 µM (inactive). The GI50 in the test on ACHN is 15.8 µM (inactive); with NCI-H23 it was 19.7 µM (inactive); with DU-145, 16.5 µM (inactive); in the test on PC-3 it was 21.8 µM (inactive); in the test with SF-295, 20.7 µM (inactive); with HT-29 it was 18.5 µM (inactive). Also, the GI50 was 20.1 µM (inactive) in the test on NCI-H460; 20.2 µM (inactive) in the test with IGROV-1; 24.6 µM (inactive) with HOP-62; 19.9 µM (inactive) in the test on SW-620; 17.4 µM (inactive) in the test with HCT-116; 22.9 µM (inactive) with BT-549. The GI50 in the test with MCF7 is 36.5 µM (inactive); in the test with UO-31, 19.1 µM (inactive).

For `Oc1ccc(Cl)cc1C1=NC(NCN2CCN(CNC3=NC(c4ccccc4)CC(c4cc(Cl)ccc4O)=N3)CC2)=NC(c2ccccc2)C1` (stereo not given), the GI50 was 20.9 µM (inactive) in the test with 786-0; 40.6 µM (inactive) with LOX IMVI; > 100 µM (inactive) in the test on SK-MEL-28; 18.4 µM (inactive) in the test with RPMI-8226; 45 µM (inactive) with UACC-62; 28.8 µM (inactive) in the test with OVCAR-3. The GI50 with ACHN was 24.8 µM (inactive); with NCI-H23, 46.6 µM (inactive); in the test on DU-145, 41.8 µM (inactive); with PC-3, 39.7 µM (inactive); in the test on SF-295, 32.3 µM (inactive); with HT-29, 36.5 µM (inactive). The GI50 in the test on NCI-H460 is 35.2 µM (inactive); in the test with IGROV-1 it was 34.4 µM (inactive); in the test with HOP-62 it was 42.2 µM (inactive); in the test on SW-620, 33.1 µM (inactive); with HCT-116, 20.4 µM (inactive); in the test on BT-549, 52.2 µM (inactive). Also, the GI50 in the test with MCF7 is 9.08 µM (inactive); in the test with UO-31, 37.3 µM (inactive).

As for `COc1ccc(/N=C(/SS/C(=N/c2ccc(OC)cc2)c2ccc([N+](=O)[O-])o2)c2ccc([N+](=O)[O-])o2)cc1`, the GI50 was 0.719 µM (active) in the test on 786-0; 1.78 µM (inactive) in the test with LOX IMVI; 2.49 µM (inactive) in the test on SK-MEL-28; 0.489 µM (active) in the test on RPMI-8226; 1.28 µM (inactive) in the test with UACC-62; 0.624 µM (active) in the test with OVCAR-3. The GI50 with ACHN was 1.41 µM (inactive); in the test on NCI-H23 it was 1.45 µM (inactive); in the test on DU-145, 1.41 µM (inactive); in the test on PC-3, 0.838 µM (active); in the test on SF-295, 2.16 µM (inactive); with HT-29 it was 0.701 µM (active). Moreover, the GI50 in the test with NCI-H460 was 0.982 µM (active); in the test with IGROV-1, 1.75 µM (inactive); with HOP-62, 1.94 µM (inactive); in the test on SW-620, 0.35 µM (active); in the test with HCT-116, 1.18 µM (inactive); in the test with BT-549, 1.54 µM (inactive). The GI50 is 0.51 µM (active) in the test with MCF7 and 1.24 µM (inactive) with UO-31.

Regarding `CCCC(=O)Nc1ccc2c(c1)CN1C(=O)c3ccccc3C1=N2`, the GI50 in the test on 786-0, in the test on LOX IMVI, in the test on SK-MEL-28, in the test with RPMI-8226, in the test with UACC-62 and in the test with OVCAR-3 was > 100 µM (inactive) each time. Moreover, the GI50 in the test with ACHN was > 100 µM (inactive); in the test with NCI-H23 it was > 100 µM (inactive); in the test on DU-145, > 100 µM (inactive); with PC-3, > 100 µM (inactive); in the test on SF-295, 69.5 µM (inactive); in the test on HT-29, > 100 µM (inactive). The GI50 with NCI-H460, with IGROV-1, with HOP-62, with SW-620, in the test on HCT-116 and in the test on BT-549 was > 100 µM (inactive) in each case. The GI50 with MCF7 and in the test on UO-31 was > 100 µM (inactive) throughout.

On to `C/C(=C\c1ccccc1)C(=O)NCc1ccc(C(=O)NCCC(C)C)cc1`, for which the GI50 with 786-0 was 38.3 µM (inactive); in the test on LOX IMVI, > 100 µM (inactive); with SK-MEL-28, > 100 µM (inactive); in the test with RPMI-8226 it was > 100 µM (inactive); in the test on UACC-62 it was 15.6 µM (inactive); in the test on OVCAR-3 it was > 100 µM (inactive). The GI50 with ACHN was 55.6 µM (inactive); in the test with NCI-H23 it was 88.3 µM (inactive); with DU-145, > 100 µM (inactive); in the test on PC-3, > 100 µM (inactive); in the test with SF-295, 37 µM (inactive); with HT-29, 41.8 µM (inactive). The GI50 is > 100 µM (inactive) in the test on NCI-H460; 68.7 µM (inactive) in the test with IGROV-1; 18.2 µM (inactive) in the test with HOP-62; > 100 µM (inactive) with SW-620; 65 µM (inactive) in the test on HCT-116; 33.8 µM (inactive) in the test with BT-549. For the same compound, the GI50 with MCF7 was > 100 µM (inactive); in the test on UO-31 it was 37.8 µM (inactive).

On to `O=C(CC(NC(=O)C(F)(F)F)C(=O)O)OCc1ccccc1` (stereo not given), for which the GI50 with 786-0, in the test with LOX IMVI, in the test with SK-MEL-28, in the test on RPMI-8226, in the test on UACC-62 and in the test on OVCAR-3 was > 100 µM (inactive) in each case. The GI50 in the test with ACHN, in the test with NCI-H23, in the test on DU-145, with PC-3, in the test with SF-295 and with HT-29 was > 100 µM (inactive) each time. Moreover, the GI50 in the test on NCI-H460, in the test on IGROV-1, with HOP-62, with SW-620, in the test on HCT-116 and in the test with BT-549 was > 100 µM (inactive) each time. The GI50 in the test on MCF7 and in the test with UO-31 was > 100 µM (inactive) throughout.

For `CC(=C/C=C/C=C(C)\C=C\C=C(\C)C(=O)O)/C=C/C=C(/C)C(=O)O`, the GI50 in the test on 786-0, in the test with LOX IMVI, in the test with SK-MEL-28, in the test with RPMI-8226, in the test on UACC-62 and in the test on OVCAR-3 was > 100 µM (inactive) throughout. The GI50 with ACHN, with NCI-H23, in the test on DU-145, in the test with PC-3, in the test on SF-295 and with HT-29 was > 100 µM (inactive) in each case. The GI50 in the test with NCI-H460, in the test on IGROV-1, with HOP-62, with SW-620, in the test on HCT-116 and in the test with BT-549 was > 100 µM (inactive) in each case. For the same compound, the GI50 in the test on MCF7 and in the test on UO-31 was > 100 µM (inactive) in each case.

Turning to `COc1cc(/C=C\c2ccc(C)cc2)cc(OC)c1OC`, the GI50 is 0.00456 µM (active) in the test on 786-0; 0.00433 µM (active) in the test on LOX IMVI; 0.0167 µM (active) in the test on SK-MEL-28; 0.00371 µM (active) with RPMI-8226; 0.00885 µM (active) in the test with UACC-62; 0.00115 µM (active) with OVCAR-3. Besides, the GI50 with ACHN was 0.0637 µM (active); with NCI-H23, 0.0363 µM (active); in the test with DU-145 it was 0.0234 µM (active); in the test on PC-3, 0.0123 µM (active); with SF-295 it was 0.00188 µM (active); in the test on HT-29, 0.00783 µM (active). For the same compound, the GI50 with NCI-H460 was 0.0232 µM (active); with IGROV-1, 0.0466 µM (active); in the test on HOP-62 it was 0.0355 µM (active); in the test on SW-620, 0.00192 µM (active); in the test with HCT-116, 0.00106 µM (active); in the test on BT-549, 0.0246 µM (active). Besides, the GI50 in the test with MCF7 is 0.0415 µM (active); in the test on UO-31, 0.12 µM (active).

Source of the values: ChEMBL document CHEMBL1201862, “PubChem BioAssay data set” (2004).
